Experimental data: patent US9657071B2, “IgE peptide vaccine” (NIPPON ZENYAKU KOGYO CO., LTD., priority 2012, dated 2017)

Key:
dog IgE = assay: Subcutaneous administration test using rats: IgG antibody against dog IgE (ELISA); format: in vivo; conditions: 50 μg three times, no adjuvant
Description: The dog IgE protein (Bethyl Laboratories, Inc.; P115), the mouse IgE protein (BD Biosciences, San Jose, Calif., USA), and the human IgE protein (Athens Research And Technology, Inc.; 16-16-090705-ML) were each prepared at 1 μg/mL, 500 ng/mL, 250 ng/mL, 125 ng/mL, 62.5 ng/mL, 31.2 ng/mL, 15.6 ng/mL, 7.8 ng/mL, 3.9 ng/mL, 1.95 ng/mL, and 0.97 ng/mL in an immobilization buffer (0.05 M carbonate buffer, pH 9.6), then added at a concentration of 100 μL/well to an ELISA plate, and left overnight at 4° C. The immobilization plate was washed once with PBS-T (0.05%). A blocking solution (4× Block Ace, Snow Brand Milk Products Co., Ltd.; UK-B80) was added thereto at a concentration of 200 μL/well. The plate was blocked by incubation at 37° C. for 1.5 hours. The serum was diluted 2000-fold with a diluent (PBS-T:Block Ace=9:1) and used. The serum of an unimmunized rat was similarly diluted and used as a negative control. […] Then, the measurement was performed using a plate reader (Bio-Rad Laboratories, Inc.; model 680) (dual: measurement: 450 nm, control: 570 nm).
This peptide was used in the immunization of rats without the use of an adjuvant, and antibody response to dog IgE was evaluated. […]
Blood was collected every 2 weeks from the administer start date. […] Serum was collected, and an IgG antibody against dog IgE was evaluated by ELISA (FIG. 16). […]

peptide-specific IgG = assay: Peptide-specific IgG in serum of dogs given IgE peptide vaccine (ELISA); format: in vivo; conditions: dog
Description: The peptide used was MOUSE CH3-4-17-11 (mouse CH3 region amino acid sequence) (SEQ ID NO: 27). 2 mL (500 μg) of a solution of the peptide (concentration: 250 μg/mL) and 2 mL of a complete adjuvant (DIFCO ADJUVANT COMPLETE FREUND, Becton, Dickinson and Company Japan) were dispensed to microtubes. Liquids (4 mL per animal) emulsified by shaking for 15 minutes in a high-speed shaker were used as IgE peptide vaccines.
The animals used were 1 male and 7 females of 5- to 7-month-old beagles and were divided into an administration group (n=4; 08-33, 08-42, 08-43, and 08-44) and a non-administration group (n=4; 08-45, 08-46, 08-47, and 08-48).
The peptide was administered at days 0 (test start date), 14, and 28 in the first course and further at days 106 and 117 in the second course. The test substance was subcutaneously administered to the necks of the 4 animals in the administration group. The non-administration group was untreated.
At days 0, 14, 28, 42, 56, 70, 77, 84, 98, 106, 117, 131, 145, and 152 (4 time points (0, 14, 28, and 42) were excluded for the non-administration group), blood was collected from the jugular vein of each individual using a syringe. After separation of serum, the serum was used to measure peptide-specific IgG concentrations and IgE-specific IgG concentrations in the serum.
Each antigenic protein (MOUSE CH3-4-17-11 for peptide-specific IgG assay, and human IgE for IgE-specific IgG assay) was prepared at 1 μg/mL in an immobilization buffer (0.05 M carbonate buffer, pH 9.6), then added at a concentration of 100 μL/well to an ELISA plate, and left overnight at 4° C. The immobilization plate was washed once with PBS-T (0.05%). A blocking solution (4× Block Ace, Snow Brand Milk Products Co., Ltd.; UK-B80) was added thereto at a concentration of 200 μL/well. The plate was blocked by incubation at 37° C. for 1.5 hours. The serum was diluted 5000-fold with a diluent (PBS-T:Block Ace=9:1) and used. […] Then, the measurement was performed using a plate reader (Bio-Rad Laboratories, Inc.; model 680) (dual: measurement: 450 nm, control: 570 nm).

Row | Sequence | level of the rat IgG antibody against dog IgE (dog IgE; intravenous) | level of the rat IgG antibody against dog IgE (dog IgE; subcutaneous) | peptide-specific IgG concentrations in serum (O.D. values), one animal (08-44) (peptide-specific IgG; s.c., day 117 or later (second course)) [O.D.] | peptide-specific IgG in serum, administration group versus non-administration group (peptide-specific IgG; day 77, p<0.05) | level of IgG antibody against the peptide (peptide-specific IgG; summary of FIG. 6)
1 | KKTSVSASQWYTKHHNNATT (listed as Mus musculus) [M4-7-11] | confirmed to elevate | confirmed to elevate | – | – | –
2 | QEKKTSVSASQWYTKHHNNATTSIT (listed as Mus musculus) [MOUSE CH3-4-17-11] | – | – | ≥ 1.0 | significantly higher | increased
